Reference: PubChem BioAssay AID2658 (Sanford-Burnham Center for Chemical Genomics, 2010)
“And” between values parts separate entries of the source, which are not always exact repeats. Equal entries are not always repeated. The source made the active and inactive calls. The rule behind the calls is not given here.

Molecular target: Ubiquitin-conjugating enzyme E2 N (Homo sapiens) (UniProt P61088)
Assay: inhibition of Ubc13-driven ubiquitin chain assembly – biochemical, TR-FRET, Uev1a, selectivity assay, SAR follow-up (AID 2658)
Conditions: Ubc13/Uev1a polyubiquitination, in vitro

Sequence of Ubiquitin-conjugating enzyme E2 N (Homo sapiens) (P61088 whole entry, looked up): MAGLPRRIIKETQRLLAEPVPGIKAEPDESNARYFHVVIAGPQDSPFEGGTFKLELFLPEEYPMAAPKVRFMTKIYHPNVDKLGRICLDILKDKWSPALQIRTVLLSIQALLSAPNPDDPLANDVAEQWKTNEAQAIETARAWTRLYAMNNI

IC50	Compound
> 100 µM (inactive)	Fc1ccc(C2Nc3ccccc3C3C=CCC32)cc1 (centres undefined)
> 100 µM (inactive)	S=c1[nH]nc(-c2cc(-c3ccccc3)n[nH]2)n1N=Cc1ccc(Cl)c(Cl)c1
81.1 µM	Cc1ccccc1CNC(=O)COC(=O)c1cc(-c2ccco2)nc2ccccc12
> 100 µM (inactive)	Cc1ccc(O)c(N=Cc2cccs2)c1
16.7 µM and > 100 µM (inactive)	COc1ccccc1NC(=O)COC(=O)c1cc(-c2ccco2)nc2ccccc12
> 100 µM (inactive)	COc1ccccc1C(=O)NC(=O)COC(=O)c1cc(-c2ccco2)nc2ccccc12
> 100 µM (inactive)	O=C(NNc1cc(N2CCCC2)nc(N2CCCC2)n1)c1ccc([N+](=O)[O-])cc1
> 100 µM (inactive)	CCCCn1c(NC(=O)c2ccc(Br)o2)c(S(=O)(=O)c2ccccc2)c2nc3ccccc3nc21
> 100 µM (inactive)	Cc1[nH][nH]c(=O)c1C(c1ccc(-c2ccc(F)cc2)o1)c1c(C)[nH][nH]c1=O
> 100 µM (inactive)	COC(=O)c1c(-c2ccccc2)csc1NC(=O)/C=C/c1cccs1
> 100 µM (inactive)	O=c1[nH]c(Nc2ccccc2)cc2ccccc12
> 100 µM (inactive)	CC(=O)NC1C(=O)N(CCN2CCOCC2)c2ccc(F)cc21 (centres undefined)
26.1 µM and 31.2 µM	O=C(N/N=C/c1ccc(F)cc1)c1cc(-c2ccco2)nc2ccccc12
> 100 µM (inactive)	COc1cc(C2c3c(oc4ccccc4c3=O)C(=O)N2c2nccs2)ccc1O (centres undefined)
